Patent US20190282569A1, “STABLE PHARMACEUTICAL COMPOSITION” (ASTELLAS PHARMA INC., priority 2016, published 2019)

Key:
[1] = Stability of the drug substance itself; assay type: physicochemical; conditions: drug substance alone, without pharmaceutical additives
[2] = tested on: epidermal growth factor receptor (EGFR) mutant kinase; conditions: disclosed in Patent literature 1 (WO 2013/108754); cited from earlier work

Row | stability of the drug itself (in words) [1] | SMILES | inhibitory action on an epidermal growth factor receptor (EGFR) mutant kinase [2]
1 | stable | C=CC(=O)N1CC[C@@H](Oc2nc(Nc3ccc(N4CCC(N5CCN(C)CC5)CC4)cc3)c(C(N)=O)nc2CC)C1.CS(=O)(=O)O [compound A monomethanesulfonate, 5-{[(3R)-1-acryloylpyrrolidin-3-yl]oxy}-6-ethyl-3-({4-[4-(4-methylpiperazin-1-yl)piperidin-1-yl]phenyl}amino)-pyrazine-2-carboxamide monomethanesulfonate] | 
2 |  | C=CC(=O)N1CC[C@@H](Oc2nc(Nc3ccc(N4CCC(N5CCN(C)CC5)CC4)cc3)c(C(N)=O)nc2CC)C1 [compound A, 5-{[(3R)-1-Acryloylpyrrolidin-3-yl]oxy}-6-ethyl-3-({4-[4-(4-methylpiperazin-1-yl)piperidin-1-yl]phenyl}amino)-pyrazine-2-carboxamide] | confirmed
